The target of one data set is T1, human recombinant sEH (Homo sapiens, UniProt P34913).
T1 construct: made in house; host or cells: Sf9 insect cells (recombinant baculovirus)
T1 sequence (P34913 1-555): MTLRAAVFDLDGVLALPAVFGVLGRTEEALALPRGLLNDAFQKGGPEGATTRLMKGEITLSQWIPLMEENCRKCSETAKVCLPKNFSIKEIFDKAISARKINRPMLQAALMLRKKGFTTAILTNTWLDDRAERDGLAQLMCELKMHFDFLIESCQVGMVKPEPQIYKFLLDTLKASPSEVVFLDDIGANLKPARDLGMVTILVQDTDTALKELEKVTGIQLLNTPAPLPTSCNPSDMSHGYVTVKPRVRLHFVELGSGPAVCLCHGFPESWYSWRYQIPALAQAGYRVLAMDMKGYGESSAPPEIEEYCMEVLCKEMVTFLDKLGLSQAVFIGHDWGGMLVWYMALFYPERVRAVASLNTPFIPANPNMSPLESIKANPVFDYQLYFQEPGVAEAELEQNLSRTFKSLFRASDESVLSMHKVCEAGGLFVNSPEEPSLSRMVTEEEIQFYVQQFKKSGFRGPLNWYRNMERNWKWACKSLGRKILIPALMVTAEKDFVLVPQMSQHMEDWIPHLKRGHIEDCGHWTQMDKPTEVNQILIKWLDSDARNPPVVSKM
The experiment in a line: sEH activity assay (PHOME substrate). Type of data set: biochemical. The settings on record: Table 2; human isolated sEH; mean ± SEM.

Data set [1] can be described thus: In vivo plasma levels of 73. The settings on record: mouse, ip, mean ±SD.
A further data set has as its target T2, 5-LOX (Homo sapiens, UniProt P09917).
T2 sequence (P09917 1-674): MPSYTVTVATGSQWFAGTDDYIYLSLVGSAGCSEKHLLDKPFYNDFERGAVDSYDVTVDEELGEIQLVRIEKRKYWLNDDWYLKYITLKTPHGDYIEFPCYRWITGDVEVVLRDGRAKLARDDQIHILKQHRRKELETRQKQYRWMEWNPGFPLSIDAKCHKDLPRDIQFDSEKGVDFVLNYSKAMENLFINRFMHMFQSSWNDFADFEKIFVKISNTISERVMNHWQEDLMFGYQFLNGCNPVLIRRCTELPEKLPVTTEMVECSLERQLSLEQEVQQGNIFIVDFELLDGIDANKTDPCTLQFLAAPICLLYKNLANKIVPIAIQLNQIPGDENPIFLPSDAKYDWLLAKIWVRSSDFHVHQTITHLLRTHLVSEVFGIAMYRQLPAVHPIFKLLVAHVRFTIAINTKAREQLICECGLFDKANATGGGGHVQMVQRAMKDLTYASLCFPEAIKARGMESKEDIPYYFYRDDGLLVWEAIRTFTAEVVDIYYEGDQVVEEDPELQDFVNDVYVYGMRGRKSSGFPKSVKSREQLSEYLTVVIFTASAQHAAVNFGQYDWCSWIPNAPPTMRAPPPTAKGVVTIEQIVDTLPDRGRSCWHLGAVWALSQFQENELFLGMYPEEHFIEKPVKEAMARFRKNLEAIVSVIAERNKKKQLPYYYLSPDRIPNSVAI
The experiment in a line: Cell-free 5-LOX activity assay. The settings on record: Table 2; human isolated 5-LOX; mean ± SEM. Also noted: made in house; host or cells: Escherichia coli Bl21 (DE3). In kind it is biochemical.

What is called IC50 is the concentration that gives 50% inhibition.

For the compound “4-(3-(1-(4-Fluorobenzyl)indolin-5-yl)thioureido)benzoic Acid [compound 58]”, the IC50 on human recombinant sEH was > 10 µM.
On to `CC(C)(C)CNC(=S)Nc1ccc2c(c1)CCN2Cc1ccc(N=O)cc1` [compound 73, 1-Neopentyl-3-(1-(4-nitrosobenzyl)indolin-5-yl)thiourea], for which the concentration at 0.5 h in data set [1] (0.5 h after 10 mg Kg-1 intraperitoneal) amounted to 15.4 ± 2.5 ng/mL. This compound showed a concentration at 1 h in data set [1] (1 h after 10 mg Kg-1 intraperitoneal) of 12.3 ± 0.9 ng/mL. This compound also returned a concentration at 2 h in data set [1] (2 h after 10 mg Kg-1 intraperitoneal) of 10.6 ± 0.6 ng/mL. For the same compound, the concentration at 4 h in data set [1] (4 h after 10 mg Kg-1 intraperitoneal) turned out to be 1.1 ± 0.1 ng/mL.
“1-(1-(4-Aminobutyl)indolin-5-yl)-3-neopentylthiourea [compound 51]”: the IC50 at human recombinant sEH and on 5-LOX was > 10 µM each time.

The values are drawn from PMC9661480, “Discovery and Optimization of Indoline-Based Compounds as Dual 5-LOX/sEH Inhibitors: In Vitro and In Vivo Anti-Inflammatory Characterization” (Journal of Medicinal Chemistry, 2022).
